Here are results for six compounds from PMC10384657 (Virus Research, 2023).

Series [1] relates to MPER25c peptide (S2 membrane proximal region derived). It is filed as binding, SARS-CoV-2.
Another series relates to Vero E6 cells. As to conditions: 72 h.

Take `CC[C@H](C)[C@H](NC(=O)[C@H](CCC(N)=O)NC(=O)[C@H](CC(C)C)NC(=O)[C@H](C)NC(=O)[C@H](C)NC(=O)CNC(=O)[C@H](C)NC(=O)CNC(=O)[C@H](Cc1ccccc1)NC(C)=O)C(=O)N1CCC[C@H]1C(=O)N[C@@H](Cc1ccccc1)C(=O)N[C@@H](C)C(=O)N[C@@H](CCSC)C(=O)N[C@@H](CCC(N)=O)C(=O)N[C@@H](CCSC)C(=O)N[C@@H](C)C(=O)N[C@@H](C)C(=O)N[C@@H](CCCNC(=N)N)C(=O)N[C@@H](Cc1ccccc1)C(N)=O` [PN19Y→A904]: the “fold lower binding activity to immobilized MPER25c than PN19” value (“fold lower binding activity” below) in series [1] was 2-3 fold. For the same compound, the “CC50 (mean ± SD)” value with Vero E6 cells was greater than 100 µM.

Take `CC[C@H](C)[C@H](NC(=O)[C@H](CCC(N)=O)NC(=O)[C@H](CC(C)C)NC(=O)[C@H](C)NC(=O)[C@H](C)NC(=O)CNC(=O)[C@H](C)NC(=O)CNC(=O)[C@H](Cc1ccccc1)NC(C)=O)C(=O)N1CCC[C@H]1C(=O)N[C@@H](Cc1ccccc1)C(=O)N[C@@H](C)C(=O)N[C@@H](CCSC)C(=O)N[C@@H](CCC(N)=O)C(=O)N[C@@H](CCSC)C(=O)N[C@@H](C)C(=O)N[C@@H](Cc1ccc(O)cc1)C(=O)N[C@@H](CCCNC(=N)N)C(=O)N[C@@H](C)C(N)=O` [PN19F→A906]: the “fold lower binding activity” value in series [1] is 2-3 fold. In addition, in the series with Vero E6 cells, the “CC50 (mean ± SD)” value is greater than 100 µM.

`CC[C@H](C)[C@H](NC(=O)[C@H](CCC(N)=O)NC(=O)[C@H](CC(C)C)NC(=O)[C@H](C)NC(=O)[C@H](C)NC(=O)CNC(=O)[C@H](C)NC(=O)CNC(=O)[C@H](Cc1ccccc1)NC(C)=O)C(=O)N1CCC[C@H]1C(=O)N[C@@H](C)C(=O)N[C@@H](C)C(=O)N[C@@H](CCSC)C(=O)N[C@@H](CCC(N)=O)C(=O)N[C@@H](CCSC)C(=O)N[C@@H](C)C(=O)N[C@@H](Cc1ccc(O)cc1)C(=O)N[C@@H](CCCNC(=N)N)C(=O)N[C@@H](Cc1ccccc1)C(N)=O` [PN19F→A898]: the “fold lower binding activity” value in series [1] was 2-3 fold. For the same compound, the “CC50 (mean ± SD)” value with Vero E6 cells is greater than 100 µM. Turning to `CC[C@H](C)[C@H](NC(=O)[C@H](CCC(N)=O)NC(=O)[C@H](CC(C)C)NC(=O)[C@H](C)NC(=O)[C@H](C)NC(=O)CNC(=O)[C@H](C)NC(=O)CNC(=O)[C@H](Cc1ccccc1)NC(=O)[C@@H](NC(=O)[C@H](Cc1c[nH]c2ccccc12)NC(=O)CNC(=O)[C@H](CO)NC(C)=O)[C@@H](C)O)C(=O)N1CCC[C@H]1C(=O)N[C@@H](Cc1ccccc1)C(=O)N[C@@H](C)C(=O)N[C@@H](CCSC)C(N)=O` [PC17], in the series on Vero E6 cells, the “CC50 (mean ± SD)” value was greater than 100 µM. Still for that read-out and setting: next, `CC[C@H](C)[C@H](NC(=O)[C@H](CCC(N)=O)NC(=O)[C@H](CC(C)C)NC(=O)[C@H](C)NC(=O)[C@H](C)NC(=O)CNC(=O)[C@H](C)NC(=O)CNC(=O)[C@H](C)NC(C)=O)C(=O)N1CCC[C@H]1C(=O)N[C@@H](Cc1ccccc1)C(=O)N[C@@H](C)C(=O)N[C@@H](CCSC)C(=O)N[C@@H](CCC(N)=O)C(=O)N[C@@H](CCSC)C(=O)N[C@@H](C)C(=O)N[C@@H](Cc1ccc(O)cc1)C(=O)N[C@@H](CCCNC(=N)N)C(=O)N[C@@H](Cc1ccccc1)C(N)=O` [PN19F→A888]: greater than 100 µM; `CC[C@H](C)[C@H](NC(=O)[C@H](CCC(N)=O)NC(=O)[C@H](CC(C)C)NC(=O)[C@H](C)NC(=O)[C@H](C)NC(=O)CNC(=O)[C@H](C)NC(=O)CNC(=O)[C@H](Cc1ccccc1)NC(C)=O)C(=O)N1CCC[C@H]1C(=O)N[C@@H](Cc1ccccc1)C(=O)N[C@@H](C)C(=O)N[C@@H](CCSC)C(=O)N[C@@H](CCC(N)=O)C(=O)N[C@@H](CCSC)C(N)=O` [PNC15]: greater than 100 µM.
